Here are results for 22 compounds from patent US12441703B2, “Carboxamides as modulators of sodium channels” (VERTEX PHARMACEUTICALS INCORPORATED, priority 2019, dated 2025).

Each structure is given as a SMILES string. Where two headings read alike, the source gives them in different places.

This assay concerns the target human NaV 1.8 (Homo sapiens, UniProt Q9Y5Y9). In words: E-VIPR assay for detecting and measuring NaV inhibition properties. The format is cell-based. To be noted: HEK cells expressing truncated human NaV 1.8, read-out: IC50. The gist of the method:
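HEK cells with truncated human NaV1.8 plus KIR2.1 BacMam, hexyl dye loaded 20 min, compound 30 min at room temperature, 11-point 3-fold series […], 0.625% DMSO, with or without human serum. E-VIPR biphasic stimulation at 10 Hz for 10 s; membrane-potential response read as normalized coumarin/oxonol ratio.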

The mark [1] stands for this setting: E-VIPR assay conducted in the presence of human serum.

Sequence of human NaV 1.8 (Q9Y5Y9 whole entry, looked up, the tested form may be a part): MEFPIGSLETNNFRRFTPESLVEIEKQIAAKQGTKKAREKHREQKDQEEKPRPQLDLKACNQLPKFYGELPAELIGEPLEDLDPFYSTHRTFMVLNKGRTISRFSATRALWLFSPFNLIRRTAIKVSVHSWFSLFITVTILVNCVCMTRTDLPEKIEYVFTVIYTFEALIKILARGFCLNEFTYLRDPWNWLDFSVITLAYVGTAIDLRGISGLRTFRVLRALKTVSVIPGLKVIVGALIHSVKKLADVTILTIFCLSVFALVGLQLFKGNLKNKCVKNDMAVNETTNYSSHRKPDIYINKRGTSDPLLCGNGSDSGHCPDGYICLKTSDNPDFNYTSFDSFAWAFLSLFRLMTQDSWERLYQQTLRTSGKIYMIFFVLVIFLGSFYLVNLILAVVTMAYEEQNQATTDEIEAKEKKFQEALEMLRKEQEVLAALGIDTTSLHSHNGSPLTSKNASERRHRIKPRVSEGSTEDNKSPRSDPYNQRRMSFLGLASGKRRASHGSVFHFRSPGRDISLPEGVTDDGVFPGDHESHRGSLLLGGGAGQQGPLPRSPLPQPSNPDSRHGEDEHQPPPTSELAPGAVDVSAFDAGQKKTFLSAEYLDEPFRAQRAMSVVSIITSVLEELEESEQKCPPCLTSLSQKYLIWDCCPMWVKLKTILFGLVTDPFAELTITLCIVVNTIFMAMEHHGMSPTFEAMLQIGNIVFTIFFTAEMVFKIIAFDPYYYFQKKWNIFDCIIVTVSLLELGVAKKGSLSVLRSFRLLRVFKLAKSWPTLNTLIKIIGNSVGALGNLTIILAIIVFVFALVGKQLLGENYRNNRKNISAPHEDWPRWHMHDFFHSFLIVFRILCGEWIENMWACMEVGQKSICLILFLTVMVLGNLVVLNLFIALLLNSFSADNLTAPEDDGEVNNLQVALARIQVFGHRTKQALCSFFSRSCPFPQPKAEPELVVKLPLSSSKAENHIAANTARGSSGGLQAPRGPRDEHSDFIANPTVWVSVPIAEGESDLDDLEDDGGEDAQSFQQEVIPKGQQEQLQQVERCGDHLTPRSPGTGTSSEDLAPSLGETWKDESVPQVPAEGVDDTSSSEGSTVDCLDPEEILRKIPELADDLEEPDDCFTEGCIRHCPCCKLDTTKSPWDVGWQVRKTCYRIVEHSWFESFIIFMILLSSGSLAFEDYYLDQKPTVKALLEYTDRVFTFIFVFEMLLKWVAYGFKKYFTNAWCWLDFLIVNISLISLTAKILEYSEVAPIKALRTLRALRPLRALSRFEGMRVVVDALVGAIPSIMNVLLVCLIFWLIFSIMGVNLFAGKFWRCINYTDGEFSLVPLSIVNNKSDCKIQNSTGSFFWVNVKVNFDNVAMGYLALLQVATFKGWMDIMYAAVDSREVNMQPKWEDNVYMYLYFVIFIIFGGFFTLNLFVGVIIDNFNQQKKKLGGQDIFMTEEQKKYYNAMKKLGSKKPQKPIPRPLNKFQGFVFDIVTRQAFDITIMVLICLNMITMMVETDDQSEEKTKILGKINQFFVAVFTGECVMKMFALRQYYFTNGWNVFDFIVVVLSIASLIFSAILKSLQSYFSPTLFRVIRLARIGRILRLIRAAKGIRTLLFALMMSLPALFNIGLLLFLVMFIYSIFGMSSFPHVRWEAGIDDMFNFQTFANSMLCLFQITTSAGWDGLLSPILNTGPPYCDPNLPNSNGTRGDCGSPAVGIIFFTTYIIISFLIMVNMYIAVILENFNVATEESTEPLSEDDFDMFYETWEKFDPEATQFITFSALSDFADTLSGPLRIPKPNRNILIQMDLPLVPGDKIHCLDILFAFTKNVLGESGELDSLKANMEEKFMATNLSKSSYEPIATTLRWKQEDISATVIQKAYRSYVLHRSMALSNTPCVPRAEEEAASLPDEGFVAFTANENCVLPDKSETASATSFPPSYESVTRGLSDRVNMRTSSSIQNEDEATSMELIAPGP

A word on the IC50: it is the concentration that inhibits the measured activity by half. With `COc1c(C(F)(F)F)cc(Oc2ccc(F)cc2Cl)c(C(=O)Nc2cc(C(N)=O)ncc2C)c1F` [Compound 382, 4-(6-(2-Chloro-4-Fluorophenoxy)-2-Fluoro-3-Methoxy-4-(Trifluoromethyl)Benzamido)-5-Methylpicolinamide], the IC50 (E-VIPR assay conducted in the absence of human serum (compounds marked *)) was 5 nM.

In the case of `COc1c(Oc2cnc(C(F)(F)F)c(OC)c2C(=O)Nc2ccnc(C(N)=O)c2)ccc(OC(F)(F)F)c1F` [Compound 333, N-(2-carbamoyl-4-pyridyl)-5-[3-fluoro-2-methoxy-4-(trifluoromethoxy)phenoxy]-3-methoxy-2-(trifluoromethyl)pyridine-4-carboxamide], the half-maximal inhibitory concentration (IC50) under setting [1] is 4.9 nM.

`COc1c(Oc2cnc(C(F)(F)F)c(OC)c2C(=O)Nc2cc(C(N)=O)ncc2C)ccc(F)c1F` [Compound 302, N-(2-carbamoyl-5-methyl-4-pyridyl)-5-(3,4-difluoro-2-methoxy-phenoxy)-3-methoxy-2-(trifluoromethyl)pyridine-4-carboxamide]: under setting [1], the IC50 was 280 nM.

In the case of `NC(=O)c1cc(NC(=O)c2c(Oc3cccc(C4CCCCC4)c3)ccc(C(F)(F)F)c2F)ccn1` [Compound 40, 4-[[6-(3-cyclohexylphenoxy)-2-fluoro-3-(trifluoromethyl)benzoyl]amino]pyridine-2-carboxamide], the IC50 under setting [1] was more than 3000 nM.

On to `NC(=O)c1cc(NC(=O)c2c(Oc3ccc(F)c(Cl)c3)cccc2C(F)(F)F)ccn1` [Compound 80, 4-[[2-(3-chloro-4-fluoro-phenoxy)-6-(trifluoromethyl)benzoyl]amino]pyridine-2-carboxamide], for which the IC50 under setting [1] is more than 3000 nM.

In the case of `[2H]C([2H])([2H])Oc1cc(OC(F)(F)F)ccc1Oc1cc(-c2ccc(C#N)cc2)cc(F)c1C(=O)Nc1ccnc(C(N)=O)c1` [Compound 1012, 4-[[4-(4-cyanophenyl)-2-fluoro-6-[2-(trideuteriomethoxy)-4-(trifluoromethoxy)phenoxy]benzoyl]amino]pyridine-2-carboxamide], the IC50 under setting [1] amounted to 190 nM.

With `[2H]C([2H])([2H])Oc1cc(OC(F)(F)F)ccc1Oc1cc(C2=CCC(OC)CC2)cc(F)c1C(=O)Nc1ccnc(C(N)=O)c1` (stereo not shown) [Compound 1009, 4-[[2-fluoro-4-(4-methoxycyclohexen-1-yl)-6-[2-(trideuteriomethoxy)-4-(trifluoromethoxy)phenoxy]benzoyl]amino]pyridine-2-carboxamide], the IC50 under setting [1] amounted to 170 nM.

Turning to `[2H]C([2H])([2H])Oc1cc(OC(F)(F)F)ccc1Oc1cc(C2=COCC2)cc(F)c1C(=O)Nc1ccnc(C(N)=O)c1` [Compound 1008, 4-[[4-(2,3-dihydrofuran-4-yl)-2-fluoro-6-[2-(trideuteriomethoxy)-4-(trifluoromethoxy)phenoxy]benzoyl]amino]pyridine-2-carboxamide], the IC50 under setting [1] came out at 21 nM.

As to `COc1cc(OC(F)(F)F)ccc1Oc1ccc(C(F)(F)F)c(C)c1C(=O)Nc1ccc(C(N)=O)nc1` [Compound 152], under setting [1], the IC50 was 12 nM.

Turning to `[2H]C([2H])([2H])Oc1cc(OC(F)(F)F)ccc1Oc1c(C)cc(C(F)(F)F)cc1C(=O)Nc1ccnc(C(N)=O)c1` [Compound 1039, 4-[[3-methyl-2-[2-(trideuteriomethoxy)-4-(trifluoromethoxy)phenoxy]-5-(trifluoromethyl)benzoyl]amino]pyridine-2-carboxamide], under setting [1], the IC50 was more than 3000 nM.

Regarding `COc1cc(OC(F)(F)F)ccc1Oc1cc(C(F)(F)F)cc(C)c1C(=O)Nc1ccc(C(N)=O)nc1` [Compound 187, 5-[[2-[2-methoxy-4-(trifluoromethoxy)phenoxy]-6-methyl-4-(trifluoromethyl)benzoyl]amino]pyridine-2-carboxamide], the IC50 under setting [1] came to 490 nM.

For the compound `NC(=O)c1ccc(NC(=O)c2c(Oc3ccc(OC(F)(F)F)cc3Cl)ccc(C(F)(F)F)c2F)cn1` [Compound 223, 5-[[6-[2-chloro-4-(trifluoromethoxy)phenoxy]-2-fluoro-3-(trifluoromethyl)benzoyl]amino]pyridine-2-carboxamide], under setting [1], the concentration for half-maximal inhibition (IC50) was 130 nM.

With `COc1c(Oc2cnc(C(F)(F)F)c(C)c2C(=O)Nc2ccc(C(N)=O)nc2)ccc(OC(F)(F)F)c1F` [Compound 337, N-(6-carbamoyl-3-pyridyl)-5-[3-fluoro-2-methoxy-4-(trifluoromethoxy)phenoxy]-3-methyl-2-(trifluoromethyl)pyridine-4-carboxamide], the IC50 under setting [1] amounted to 20.5 nM.

Take `COc1cc(Oc2ccc(F)c(F)c2OC)c(C(=O)Nc2ccnc(C(N)=O)c2)c(F)c1C` [Compound 372, 4-[[6-(3,4-difluoro-2-methoxy-phenoxy)-2-fluoro-4-methoxy-3-methyl-benzoyl]amino]pyridine-2-carboxamide]: the 50% inhibitory concentration (IC50) under setting [1] was determined as 12 nM.

`COc1c(C(F)(F)F)ccc(Oc2ccc(F)cc2F)c1C(=O)Nc1ccnc(C(N)=O)c1` [Compound 62, 4-[[6-(2,4-difluorophenoxy)-2-methoxy-3-(trifluoromethyl)benzoyl]amino]pyridine-2-carboxamide]: under setting [1], the concentration for half-maximal inhibition (IC50) is 440 nM.

Take `COc1cc(C)cc(OC)c1Oc1ccc(C(F)(F)F)c(F)c1C(=O)Nc1ccc(C(N)=O)nc1` [Compound 211, 5-[[6-(2,6-dimethoxy-4-methyl-phenoxy)-2-fluoro-3-(trifluoromethyl)benzoyl]amino]pyridine-2-carboxamide]: under setting [1], the half-maximal inhibitory concentration (IC50) is more than 3000 nM.

With `COc1cc(OC(F)(F)F)ccc1Oc1cc(-c2ccc(F)cc2)ccc1C(=O)Nc1ccnc(C(N)=O)c1` [Compound 156, 4-[[4-(4-fluorophenyl)-2-[2-methoxy-4-(trifluoromethoxy)phenoxy]benzoyl]amino]pyridine-2-carboxamide], under setting [1], the IC50 was determined as 730 nM.

As to `Cc1c(C(F)(F)F)ccc(Oc2ccc(F)c3c2OCC3)c1C(=O)Nc1ccnc(C(N)=O)c1` [Compound 125, 4-[[6-[(4-fluoro-2,3-dihydrobenzofuran-7-yl)oxy]-2-methyl-3-(trifluoromethyl)benzoyl]amino]pyridine-2-carboxamide], the IC50 under setting [1] turned out to be 140 nM.

Consider `[2H]C([2H])([2H])Oc1cc(OC(F)(F)F)ccc1Oc1cc(-c2ccc(F)cc2)cc(F)c1C(=O)Nc1ccnc(C(N)=O)c1` [Compound 89, 4-[[2-fluoro-4-(4-fluorophenyl)-6-[2-(trideuteriomethoxy)-4-(trifluoromethoxy)phenoxy]benzoyl]amino]pyridine-2-carboxamide], for which the IC50 under setting [1] worked out at 36 nM.

`COc1c(Oc2ccc(C(F)(F)F)c(F)c2C(=O)Nc2cc(C(N)=O)ncn2)ccc(OC(F)(F)F)c1F` [Compound 329, 6-[[2-fluoro-6-[3-fluoro-2-methoxy-4-(trifluoromethoxy)phenoxy]-3-(trifluoromethyl)benzoyl]amino]pyrimidine-4-carboxamide]: the 50% inhibitory concentration (IC50) under setting [1] stood at 12.7 nM.

As for `COc1cc(OC(F)(F)F)ccc1Oc1ccc(C(F)(F)F)c(C#N)c1C(=O)Nc1ccnc(C(N)=O)c1` [Compound 269, 4-[[2-cyano-6-[2-methoxy-4-(trifluoromethoxy)phenoxy]-3-(trifluoromethyl)benzoyl]amino]pyridine-2-carboxamide], under setting [1], the IC50 amounted to 37 nM.

As for `COc1c(Oc2ccc(C(F)(F)F)c(F)c2C(=O)Nc2cc(C(N)=O)ccn2)ccc(OC(F)(F)F)c1F` [Compound 330, 2-[[2-fluoro-6-[3-fluoro-2-methoxy-4-(trifluoromethoxy)phenoxy]-3-(trifluoromethyl)benzoyl]amino]pyridine-4-carboxamide], the half-inhibitory concentration (IC50) under setting [1] was 29 nM.
